Reference: patent publication US20240082222A1, “4-CHLORO-N-[2-[(4-CHLOROPHENYL)METHYL]-3-OXO-1,2,4-THIADIAZOL-5-YL]BENZAMIDE FOR USE IN MEDICINE” (Betagenon AB, priority 2021, published 2024)
Several values for one entry are separate records, joined by “and”; a condition that tells them apart may be missing. Equal entries are not always repeated. Structures can show the parent of a compound that is named as a salt.

Experiment: Pharmacokinetic study in humans, sodium salt in enteric capsules, single and multiple dose (Example 2)
Assay type: in vivo, human
Method: An open, randomised, parallel-group study in healthy volunteers (hereafter referred to as subjects) was conducted to evaluate the exposure of 4-chloro-N-[2-[(4-chlorophenyl)methyl]-3-oxo-1,2,4-thiadiazol-5-yl]benzamide after single and multiple dose administration of 3 dose levels of the sodium salt of 4-chloro-N-[2-[(4-chlorophenyl)methyl]-3-oxo-1,2,4-thiadiazol-5-yl]benzamide and to evaluate combination with dapagliflozin at steady state.
For the study, Vcaps enteric capsules, size 0, were individually filled with 200 mg of milled test material together with 2 mg of sodium docusate, 125 mg of mannitol and 6.5 mg of sodium lauryl sulfate. […]
A screening visit (Visit 1) was performed within 28 days before randomisation and the start of IMP administration. The subjects were confined to the research clinic from the evening before Day 1 (Visit 2; Day—1). […]
Pre-dose safety assessments as well as pre- and post-dose PK assessments were performed. The subjects left the clinic after the last PK-sample on Day 1 and returned for a 24 h PK sample and dosing on Day 2 (Visit 3).
Subjects self-administered the test material at home from Day 3 to Day 15. A telephone visit to check compliance, AE status and use of concomitant medications will be performed on Day 8 (Visit 4).
The subjects returned to the clinic on Days 16 and 17 (Visits 5 and 6), for PK sampling and AE assessment. Visit 6 continued in the evening of Day 17, when the subjects were confined to the clinic until Day 18. On Day 18, pre- and post-dose PK and safety assessments were performed. The subjects left the clinic after the last PK sample on Day 18 and returned for a 24 h PK sample and dosing on Day 19 (Visit 7).
On Day 19 (Visit 7) subjects began co-administration of the test material and dapagliflozin (Forxiga), 10 mg per day for 7 days (Day 19 to Day 25). The subjects returned to the clinic on Day 25 (Visit 8) for final dosing, PK and safety assessments. A final end-of-study visit (Visit 9) for follow-up of safety assessments was conducted 28 days (+14 days) after Visit 8 or after early withdrawal.
Venous blood samples (approximately 5 mL) for the determination of plasma concentrations of 4-chloro-N-[2-[(4-chlorophenyl)methyl]-3-oxo-1,2,4-thiadiazol-5-yl]benzamide after administration of the test material were collected through an indwelling venous catheter on Days 1, 2, 16 to 19 and 25.
The blood samples were collected in pre-labelled Li-Heparin tubes. All the collected blood samples were be centrifuged at 1500 G for 10 minutes to separate plasma within 60 minutes from the sample is drawn. The separated plasma from each blood sample was be divided into 2 aliquots in pre-labelled polypropylene cryotubes (A and B samples, approximately 750 μL in each tube) and frozen at <−70° C. On Day 25, the plasma was divided in to 3 aliquots of at least 500 μL (A and B samples for the test material, and 1 sample for potential future analysis of dapagliflozin).
Samples for determination of plasma concentrations of 4-chloro-N[2-[(4-chlorophenyl)methyl]-3-oxo-1,2,4-thiadiazol-5-yl]benzamide were analysed by Lablytica Life Science AB, Uppsala, Sweden by means of a validated LS-MS/MS method.
The data of plasma concentration to respective time points for the analyte (4-chloro-N-[2-[(4-chlorophenyl)methyl]-3-oxo-1,2,4-thiadiazol-5-yl]benzamide) were used for the pharmacokinetic analysis. Pharmacokinetic analysis was performed using non-compartmental analysis (NCA) module of Phoenix WinNonlin 8.1 software to determine the following pharmacokinetic parameters.
After single dose administration of test material: • AUC0-24, Cmax, Tmax and dose proportionality (based on AUC0-24 and Cmax) (secondary endpoints). […]

[1] = 400 mg Dose Group, capsules once daily, Day 18, Geometric Mean
[2] = 400 mg Dose Group, capsules once daily, Day 18, Mean
[3] = 400 mg Dose Group, capsules once daily, Day 18, Median
[4] = 400 mg Dose Group, capsules once daily, Day 18, individual subjects, listed as test material
[5] = 800 mg Dose Group, capsules once daily, Day 18, Geometric Mean
[6] = 800 mg Dose Group, capsules once daily, Day 18, Mean
[7] = 800 mg Dose Group, capsules once daily, Day 18, Median
[8] = 800 mg Dose Group, capsules once daily, Day 18, individual subjects, listed as test material
[9] = 2000 mg Dose Group, capsule once daily, Day 18, Geometric Mean
[10] = 2000 mg Dose Group, capsule once daily, Day 18, Mean
[11] = 2000 mg Dose Group, capsule once daily, Day 18, Median
[12] = 2000 mg Dose Group, capsule once daily, Day 18, individual subjects, listed as test material
[13] = capsule once daily, Day 18, individual subjects, listed as test material
[14] = dose-normalised, 400 mg Dose Group, capsules once daily, Day 18, Geometric Mean
[15] = dose-normalised, 400 mg Dose Group, capsules once daily, Day 18, Mean
[16] = dose-normalised, 400 mg Dose Group, capsules once daily, Day 18, Median
[17] = dose-normalised, 400 mg Dose Group, capsules once daily, Day 18, individual subjects, listed as test material
[18] = dose-normalised, 800 mg Dose Group, capsules once daily, Day 18, Geometric Mean
[19] = dose-normalised, 800 mg Dose Group, capsules once daily, Day 18, Mean
[20] = dose-normalised, 800 mg Dose Group, capsules once daily, Day 18, Median
[21] = dose-normalised, 800 mg Dose Group, capsules once daily, Day 18, individual subjects, listed as test material
[22] = dose-normalised, 2000 mg Dose Group, capsule once daily, Day 18, Geometric Mean

In the case of `O=C(Nc1nc(=O)n(Cc2ccc(Cl)cc2)s1)c1ccc(Cl)cc1` [Compound of formula II, sodium salt of 4-chloro-N-[2-[(4-chlorophenyl)methyl]-3-oxo-1,2,4-thiadiazol-5-yl]benzamide], the “increase in systemic exposure compared to a standard suspension of the active ingredient” value (200 mg of the sodium salt) was “up to five-fold”, the CLss_F [1] was 267.1 mL/h and the Clast [1] was 62.75 µg/mL. The Tlast [1] was 23.93 h, the CLss_F [2] was 271.8 mL/h and the Clast [2] was 64.03 µg/mL. For the same compound, the Tlast [2] was 23.93 h, the CLss_F [3] was 286.3 mL/h and the Clast [3] was 60.9 µg/mL. For the same compound, the Tlast [3] was 23.93 h, the AUC_TAU [4] was 1300 µg·h/mL and 1750 µg·h/mL and 1480 µg·h/mL and 1320 µg·h/mL and 2100 µg·h/mL and the AUClast [4] was 1290 µg·h/mL and 1740 µg·h/mL and 1480 µg·h/mL and 1320 µg·h/mL and 2090 µg·h/mL and 1650 µg·h/mL. The CLss_F [4] was 330 mL/h and 308 mL/h and 229 mL/h and 270 mL/h and 303 mL/h and 191 mL/h, the Clast [4] was 54.7 µg/mL and 50.4 µg/mL and 73.2 µg/mL and 60.9 µg/mL and 49.2 µg/mL and 86.9 µg/mL and 72.9 µg/mL and the Tlast [4] was 23.9 h (6×) and 24 h. The Tmax [4] was 12 h and 2 h and 3 h and 0.25 h and 23.9 h, the CLss_F [5] was 316.5 mL/h and the Tlast [5] was 23.92 h. For the same compound, the CLss_F [6] was 321.8 mL/h, the Tlast [6] was 23.92 h and the CLss_F [7] was 292.8 mL/h. For the same compound, the Tlast [7] was 23.92 h, the Tlast (800 mg Dose Group, capsules once daily, Day 18, individual subjects) was 23.9 h and the AUC_TAU [8] was 2500 µg·h/mL and 2910 µg·h/mL and 2730 µg·h/mL and 2870 µg·h/mL. The AUClast [8] was 2490 µg·h/mL and 2900 µg·h/mL and 2620 µg·h/mL and 2980 µg·h/mL and 2720 µg·h/mL and 2580 µg·h/mL and 2860 µg·h/mL, the CLss_F [8] was 442 mL/h and 321 mL/h and 275 mL/h and 293 mL/h and 279 mL/h and the Clast [8] was 98 μg/ml and 120 μg/ml and 115 μg/ml (2×) and 127 μg/ml and 110 μg/ml and 117 μg/ml. The Cmax [8] was 118 µg/mL and 127 µg/mL and 115 µg/mL and 130 µg/mL and 126 µg/mL and 117 µg/mL and 128 µg/mL, the Tmax [8] was 9.98 h and 0 h and 23.9 h and 10 h and 6 h and the CLss_F [9] was 202.7 mL/h. For the same compound, the Clast [9] was 42.19 µg/mL, the Tlast [9] was 23.92 h and the CLss_F [10] was 207.9 mL/h. It also gave a Tlast [10] of 23.92 h, a CLss_F [11] of 210.5 mL/h and a Clast [11] of 38.7 µg/mL. The Tlast [11] was 23.92 h, the AUC_TAU [12] was 1130 µg·h/mL and 841 µg·h/mL and 1600 µg·h/mL and 802 µg·h/mL and 950 µg·h/mL and 774 µg·h/mL and 1010 µg·h/mL and the CLss_F [12] was 176 mL/h and 238 mL/h and 125 mL/h and 249 mL/h and 210 mL/h and 259 mL/h and 198 mL/h. For the same compound, the Tmax [12] was 0.267 h and 23.9 h and 0 h and 10 h and 12 h, the Tlast (capsule once daily, Day 18, individual subjects) was 23.9 h and the AUClast [13] was 1130 µg·h/mL and 1400 µg·h/mL and 838 µg·h/mL and 1600 µg·h/mL and 800 µg·h/mL and 947 µg·h/mL and 772 µg·h/mL and 1010 µg·h/mL. For the same compound, the Clast [13] was 47 µg/mL and 62 µg/mL and 33.5 µg/mL and 68 µg/mL and 33.3 µg/mL and 36.7 µg/mL and 30.4 µg/mL and 40.7 µg/mL, the Cmax [13] was 52.1 µg/mL and 62 µg/mL and 42 µg/mL and 71.9 µg/mL and 40.2 µg/mL and 46.2 µg/mL and 34.6 µg/mL and 49.9 µg/mL and the “accumulation in the blood plasma after repeat dosing” value (capsules, 200-800 mg once daily) was “substantial accumulation”. It also gave an AUC_TAU_D [14] of 3.744 µg·h/mL/mg, an AUClast_D [14] of 3.788 µg·h/mL/mg and a Cmax_D [14] of 0.1741 µg/mL/mg. For the same compound, the AUC_TAU_D [15] was 3.816 µg·h/mL/mg, the AUClast_D [15] was 3.852 µg·h/mL/mg and the Cmax_D [15] was 0.1769 µg/mL/mg. The AUC_TAU_D [16] was 3.504 µg·h/mL/mg, the AUClast_D [16] was 3.703 µg·h/mL/mg and the Cmax_D [16] was 0.1653 µg/mL/mg. The AUC_TAU_D [17] was 3.03 µg·h/mL/mg and 3.24 µg·h/mL/mg and 4.37 µg·h/mL/mg and 3.71 µg·h/mL/mg and 3.3 µg·h/mL/mg and 5.24 µg·h/mL/mg, the AUClast_D [17] was 3.02 µg·h/mL/mg and 3.23 µg·h/mL/mg and 4.36 µg·h/mL/mg and 3.7 µg·h/mL/mg and 3.29 µg·h/mL/mg and 5.23 µg·h/mL/mg and 4.13 µg·h/mL/mg and the Cmax_D [17] was 0.141 µg/mL/mg and 0.15 µg/mL/mg and 0.193 µg/mL/mg and 0.165 µg/mL/mg and 0.161 µg/mL/mg and 0.248 µg/mL/mg and 0.182 µg/mL/mg. The AUC_TAU_D [18] was 3.159 µg·h/mL/mg, the AUClast_D [18] was 3.24 µg·h/mL/mg and the Cmax_D [18] was 0.1472 µg/mL/mg. For the same compound, the AUC_TAU_D [19] was 3.205 µg·h/mL/mg, the AUClast_D [19] was 3.274 µg·h/mL/mg and the Cmax_D [19] was 0.1482 µg/mL/mg. For the same compound, the AUC_TAU_D [20] was 3.416 µg·h/mL/mg, the AUClast_D [20] was 3.337 µg·h/mL/mg and the Cmax_D [20] was 0.1525 µg/mL/mg. The AUC_TAU_D [21] was 2.26 µg·h/mL/mg and 3.12 µg·h/mL/mg and 3.64 µg·h/mL/mg and 3.27 µg·h/mL/mg and 3.42 µg·h/mL/mg and 3.59 µg·h/mL/mg, the AUClast_D [21] was 2.25 µg·h/mL/mg and 3.11 µg·h/mL/mg and 3.63 µg·h/mL/mg and 144 µg·h/mL/mg and 3.73 µg·h/mL/mg and 3.4 µg·h/mL/mg and 3.22 µg·h/mL/mg and 3.58 µg·h/mL/mg and the Cmax_D [21] was 0.109 µg/mL/mg and 0.148 µg/mL/mg and 0.159 µg/mL/mg and 0 µg/mL/mg and 0.163 µg/mL/mg and 0.158 µg/mL/mg and 0.146 µg/mL/mg and 0.16 µg/mL/mg. For the same compound, the AUC_TAU_D [22] was 4.934 µg·h/mL/mg, the AUClast_D [22] was 5.139 µg·h/mL/mg and the “Cmax D” value [22] was 0.2432 µg/mL/mg. The AUC_TAU_D (dose-normalised, 2000 mg Dose Group, capsule once daily, Day 18, Mean) was 5.082 µg·h/mL/mg.
